Reference: US11993640B2, “Treating inflammatory lung disease” (United States Government as represented by the Department …, priority 2019, dated 2024)
Non-standard residues stand in square brackets, D forms with d. Residues, ends and D or L forms follow the SMILES beside them. *: point of attachment. Phe(F5) = N[C@@H](Cc1c(F)c(F)c(F)c(F)c1F)C(=O)O; hArg = N=C(N)NCCCC[C@H](N)C(=O)O; 12Ado = NCCCCCCCCCCCC(=O)O; Nle = CCCC[C@H](N)C(=O)O; Orn = NCCC[C@H](N)C(=O)O; Abu = CC[C@H](N)C(=O)O; PhAc = O=C(Cc1ccccc1)*

Assays:
SK-OV-3 xenograft = assay: Xenograft tumor growth in nude mice, ovarian cancer SK-OV-3; assay type: in vivo; settings: Panel L, 7 weeks, 5 μg/day s.c.
Experimental: The peptides' activity was compared with GHRH antagonist MIA-602. All statistical analyzses were performed from comparing GHRA antagonists to non-treated tumor (control).
Peptides and chemicals. GHRH antagonists MIA-602 and AVR-GHRH antagonists (see Table 2 above) were synthesized by solid phase methods and purified by HPLC. The peptides were dissolved in DMSO and further diluted in 10% 1, 2-propanediol. The final concentration of peptides was 50 µg/ml in 10% 1, 2-propanediol containing 0.1% of DMSO.
Cell culture. Human cancer cell lines including pancreatic (PANC-1 and CFPAC-1), lung (HCC827 and H460), stomach (NCI-N87), prostate (PC3), brest (MX-1 and HCC-1806), colorectal (HT-29), and ovarian (SK-OV-3 and OVCAR-3) were obtained from the American Type Culture Collection (ATCC) and cultured at 37° C. in a humidified 95% air/5% CO2 atmosphere in the medium recommended by ATCC.
Xenograft models of human cancers in nude mice. Female athymic (NCr nu/nu) nude mice, 5-to 6-weeks-old, obtained from the Envigo labs (Tampa, FL), were housed in laminar airflow cabinets under pathogen-free conditions with a 12-h light/12-h dark schedule, and were fed autoclaved standard chow and water. To generate mice with xenografted tumors, tumor xenografts were initiated by subcutaneous (s.c.) injection of […] human cancer cells into female nude mice. After about 4 weeks the resulting tumors were dissected and collected after removing necrosis tissues. The tumors were then cut into particles with size of ˜3 mm3 and transplanted s.c. by trocar needle into experimental animals. When tumors grew to the size of 50-60 mm3 (by volume), mice were randomized into groups and treated daily for 4-8 weeks by subcutaneous administration of 5 μg of GHRH antagonists MIA-602 or AVR-compounds (2-10 μg as indicated), or vehicle solutions (0.1% DMSO in 10% 1, 2-propanediol) respectively. Tumor sizes were measured weekly.
Statistical analysis. One-way ANOVA followed by Bonferroni comparison were performed. Data are expressed as Mean±SEM. To determine statistical significance between animal groups, two-tailed Student's t-test was conducted. Differences were considered significant when p<0.05.
Results. […] FIG. 1A-N represents in vivo inhibition of tumor growth during the treatment with GHRH antagonist MIA-602 and selected AVR antagonists in nude mice xenografted with various human tumors including pancreatic cancer PANC-1 (FIG. 1A) and CFPAC-1 (FIG. 1I); lung cancer HCC827 (FIGS. 1B, C) and H460 (FIG. 1H); stomach cancer N87 (FIGS. 1D-F); colon cancer HT-29 (FIG. 1G); breast cancer MX-1 and HCC-1806 (FIGS. 1J, K); ovarian cancer SK-OV-3 and OVACAR-3 (FIGS. 1L, M) and prostate cancer PC3 (FIG. 1N). See also Table 5.

[1] = test system: C57Bl/6J mice treated with bleomycin; assay: Bleomycin lung injury model, lung histopathology scores (inflammation, modified Ashcroft fibrosis); assay type: in vivo, mouse
Experimental: Experimental animals. 8-week old C57Bl/6J male mice (The Jackson Laboratory, Bar Harbor, ME) were used in these experiments. Mice weighed about 26 grams at the start. Mice were randomly allocated to the experimental groups and housed in identical filter top cages in a ventilated rack. Mice were exposed to a 12-hour light/dark cycle and had free access to standard laboratory chow and water.
Bleomycin and GHRH-R antagonist treatment. Mice were treated with 0.8 units of bleomycin (Bleomycin for Injection USP, Hospira, Lake Forest, IL) intraperitoneally (IP) on days 1, 3, 7, 10, 14 and 21 (Collins S, Chan-Li Y, Oh M, Vigeland C, Limjunyawong N, Mitzner W, Powell J D, Horton M R (2016). JCI Insight 1(4):1-13). Mice (randomly assigned) were simultaneously treated subcutaneously (sc) with MIA-602 (5 μg/day) or its vehicle (100 μL/day). MIA-602 was dissolved in DMSO (ACS grade; Sigma-Aldrich) and diluted 1:500 in normal saline for daily sc injection on days 0-21.
Tissue preparations. Mice were killed by CO2 inhalation before any treatment, or on days 14 or 28 for micro-CT scans of lungs and harvesting of lung tissue (Vande Velde G, Poelmans J, De Langhe E, Hillen A, Vanoirbeek J, Himmelreich U, Lories R (2016). Dis Model Mech 9:91). The right mainstem bronchus was ligated and the right lung removed and frozen at −80° C. for hydroxyproline (HP) assays. The left lung was filled with 10% buffered formalin at ˜25 cm H2O pressure, the bronchus ligated, and the lung fixed in formalin. Fixed lungs were embedded in wax and 5 μm sections stained with hematoxylin and eosin (H&E) or Masson's trichrome stain.
Lung histopathology. Fibrosis was quantified in trichrome-stained sections using a modification of the Ashcroft score that describes grades of fibrosis. Inflammation in lung tissue was quantified in H&E stained sections (Hubner R, Gitter W, El Mokhtari N, Mathiak M, Both M, Bolte H, Freitag-Wolf S, Bewig B (2008). Biotechniques 44:507-517).
Data analysis. Data are reported as arithmetic means±SEM or SD as indicated. […]

[2] = day 28, bleomycin-treated mice, MIA-602 5 μg/day sc days 1-21

CCCC[C@H](NC(=O)[C@@H](NC(=O)[C@H](CC(=O)O)NC(=O)[C@H](CCC(N)=O)NC(=O)[C@H](CC(C)C)NC(=O)[C@H](CC(C)C)NC(=O)[C@H](CCCN)NC(=O)[C@H](Cc1c[nH]cn1)NC(=O)[C@H](C)NC(=O)[C@H](CO)NC(=O)[C@H](CC(C)C)NC(=O)[C@H](CCC(N)=O)NC(=O)[C@H](CC)NC(=O)[C@H](CC(C)C)NC(=O)[C@@H](NC(=O)[C@H](CCCN)NC(=O)[C@H](Cc1c[nH]cn1)NC(=O)[C@H](Cc1ccc(OC)cc1)NC(=O)[C@H](CCCCNC(=N)N)NC(=O)[C@H](C)NC(=O)[C@@H](NC(=O)[C@H](Cc1c(F)c(F)c(F)c(F)c1F)NC(=O)[C@@H](NC(=O)[C@H](C)NC(=O)[C@H](CC(=O)O)NC(=O)[C@@H](CCCNC(=N)N)NC(=O)[C@H](Cc1ccc(O)cc1)NC(=O)CCCCCCCCCCCNC(=O)Cc1ccccc1)[C@@H](C)CC)[C@@H](C)O)C(C)C)[C@@H](C)CC)C(=O)N[C@H](CCCNC(=N)N)C(=O)N[C@@H](CCCCNC(=N)N)C(N)=O [MIA-602, PhAC-Ada, Tyr D-Arg, Asp, Ala, Ile, 5FPhe, Thr, Ala, Har, Tyr(Me), His, Orn, Val, Leu, Abu, Gin, Leu, Ser, Ala, His, Orn, Leu, Leu, Gin, Asp, Ile, Nle, D-Arg, Har NH2, reference compound] ({PhAc-12Ado}-Y[dR]DAI[Phe(F5)]TA[hArg]Y(Me)H[Orn]VL[Abu]QLSAH[Orn]LLQDI[Nle][dR][hArg]-NH2)
Tumor Growth % (SK-OV-3 xenograft): 810.1% | % Inhibition (SK-OV-3 xenograft; vs control): 38.0% | Lung inflammatory changes and fibrosis, histopathology ([1]; bleomycin-treated mice, days 14 and 28): Both inflammatory changes and fibrosis were decreased | Lung fibrosis histopathologic score, 5%-95% CI [1, 2]: 1.1-2.9 | Lung fibrosis histopathologic score, range [1, 2]: 1.0-3.0
